According to US12624044B2, “SMARCA degraders and uses thereof” (Kymera Therapeutics, Inc., priority 2019, dated 2026):

Biological target: SMARCA2 (Homo sapiens, UniProt P51531)
Assay: MSD SMARCA2 degradation in NCI-H1299 cell line (24 h)
Assay type: cell-based
Design: HC: NCI-H1299 cells treated with DMSO; host or cells: NCI-H1299
Conditions: for DC50: NCI-H1299 cells, read-out: SMARCA2 MSD H1299 degradation 24 h: External Abs-DC50; for Dmax: NCI-H1299, NCI-H1299 cells
Protocol: Example 32. MSD SMARCA2 Degradation in […] Cell Line
Cell Culture: Cells were cultured in exponential growth phase.
Compound Preparation and Treatment: NCI-H1299 cells were seeded into the 96-well plate at 4.0*10^4 cells per 100 ul per well. Incubate the plate in the incubator overnight. The next day, compounds were diluted to designed stock concentration by TECAN, then perform a 3 fold, 9-point dilution via transferring 15 uL compound into 30 μL DMSO using Apricot. 200 nL diluted compound from compound source plate were transferred into the 96-intermediate plate as designated by using Echo550, followed with 100 ul culture medium to make the 2× compound solution. Cell plate were changed with 80 ul of fresh culture medium and 80 ul of 2× compound solution was added into the well to achieve the final designed concentration. Cell plate was then shaken at 720 rpm for 5 min and incubated for 24 hours in the incubator.
Sample Preparation: Media was aspirated from the cultures and the plate was washed with PBS twice. 60 ul of pre-chilled PIPA lysis buffer (Boston BioProducts BP-115D) with protease inhibitor were directly added into the well to lyze the cells for 20 minutes at 4° C. Cell lysates were collected.
MSD Procedure: The MSD plate was coated with 40 ul cell lysate and incubated at 4° C. overnight. The next day, the MSD coated bare plate was washed 3 times with 150 ul 1×TBST per well, blocked with 150 ul of blocking buffer per well, and shaken for 1 hour at RT, 600 rpm. Blocking buffer was 3% Blocker A in TBST. MSD plate was then washed 3 times with 150 ul 1×TBST per well and Primary Detection antibody (Rabbit anti-SMARCA2/BRM antibody, 100 μg/ml, ab223735) was added to a final [conc.]: 0.3 ug/ml, 25 ul/well and shaken for 1 hour at RT, 600 rpm. Antibody was prepared in Antibody Detection buffer (1% Blocker A in 1×TBST). The MSD plate was then washed 3 times with 150 ul 1×TBST per well. Secondary Detection antibody (SULFO-TAG anti-species antibody) was then added to a final [conc.]: 1 ug/ml, 25 ul/well, and shaken for 1 hour at RT, 600 rpm. Antibodies were prepared in Antibody Detection buffer (1% Blocker A in 1×TBST). MSD plate was washed 3 times with 150 ul 1×TBST per well and 2×MSD reading buffer was added, 150 ul per well, and diluted from 4× with water. MSD instrument was then read.
Data Analysis: The percentage of relative level of SMARCA2 level was calculated following equation below.
LC: A2780, SMARCA2 negative cells. HC: NCI-H1299 cells treated with DMSO.
The letter codes for the percentage of SMARCA2 degradation after 24 hours (Dmax %) include: A (>90% degradation), B (>70-90 degradation), C (50-70 degradation), and D (<50% degradation).

Sequence of SMARCA2 (P51531 whole entry): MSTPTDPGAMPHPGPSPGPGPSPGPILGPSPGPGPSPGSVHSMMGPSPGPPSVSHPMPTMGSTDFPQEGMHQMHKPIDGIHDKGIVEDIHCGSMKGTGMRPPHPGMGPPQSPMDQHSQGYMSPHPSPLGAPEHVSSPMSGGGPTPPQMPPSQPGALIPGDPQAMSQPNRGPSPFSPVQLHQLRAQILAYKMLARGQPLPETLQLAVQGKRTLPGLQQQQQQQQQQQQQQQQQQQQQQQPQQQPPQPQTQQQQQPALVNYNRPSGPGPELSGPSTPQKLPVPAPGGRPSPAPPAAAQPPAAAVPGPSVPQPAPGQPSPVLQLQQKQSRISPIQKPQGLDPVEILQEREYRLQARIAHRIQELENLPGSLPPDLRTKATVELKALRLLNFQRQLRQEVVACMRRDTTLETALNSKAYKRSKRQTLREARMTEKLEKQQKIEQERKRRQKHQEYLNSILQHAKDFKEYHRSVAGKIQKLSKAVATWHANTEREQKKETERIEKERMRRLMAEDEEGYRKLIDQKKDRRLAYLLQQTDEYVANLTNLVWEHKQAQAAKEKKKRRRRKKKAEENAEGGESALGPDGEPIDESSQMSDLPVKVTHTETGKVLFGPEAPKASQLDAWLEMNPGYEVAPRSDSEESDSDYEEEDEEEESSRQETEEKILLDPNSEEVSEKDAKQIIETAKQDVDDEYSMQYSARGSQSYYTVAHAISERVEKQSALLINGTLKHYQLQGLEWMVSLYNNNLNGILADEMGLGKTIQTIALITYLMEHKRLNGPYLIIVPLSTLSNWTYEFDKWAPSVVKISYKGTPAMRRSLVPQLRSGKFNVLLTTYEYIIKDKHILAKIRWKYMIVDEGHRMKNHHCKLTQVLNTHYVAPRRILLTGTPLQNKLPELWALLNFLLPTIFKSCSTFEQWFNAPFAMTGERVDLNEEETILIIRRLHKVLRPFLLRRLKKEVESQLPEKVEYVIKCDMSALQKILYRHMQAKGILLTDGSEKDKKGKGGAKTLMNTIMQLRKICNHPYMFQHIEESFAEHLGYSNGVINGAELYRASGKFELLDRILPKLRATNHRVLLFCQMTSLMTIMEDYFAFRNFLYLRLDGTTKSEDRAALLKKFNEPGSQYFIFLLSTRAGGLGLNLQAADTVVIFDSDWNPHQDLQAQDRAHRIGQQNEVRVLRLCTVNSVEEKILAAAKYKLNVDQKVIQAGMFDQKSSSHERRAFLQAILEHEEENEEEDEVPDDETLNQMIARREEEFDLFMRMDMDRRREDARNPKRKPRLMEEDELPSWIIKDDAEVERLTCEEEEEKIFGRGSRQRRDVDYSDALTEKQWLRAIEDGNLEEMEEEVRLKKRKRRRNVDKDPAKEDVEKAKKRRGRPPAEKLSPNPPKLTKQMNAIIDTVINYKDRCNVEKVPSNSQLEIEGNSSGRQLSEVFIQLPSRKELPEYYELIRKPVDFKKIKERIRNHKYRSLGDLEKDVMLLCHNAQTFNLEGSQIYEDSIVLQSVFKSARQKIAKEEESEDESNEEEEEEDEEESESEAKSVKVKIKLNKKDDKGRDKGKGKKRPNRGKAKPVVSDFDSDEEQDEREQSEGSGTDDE

Row | Structure (SMILES) | DC50 [nM] | Dmax [%]
1 | O=C1CCC(N2C(=O)c3cccc(OCCOCCCc4cn(Cc5cccc(N6C[C@H]7C[C@@H]6CN7/C=C/C(=O)c6ccccc6O)n5)nn4)c3C2=O)C(=O)N1 (some centres unmarked) [I-40] | > 1000 | –
2 | CN1C(=O)CCC(N2C(=O)c3cccc(OCCCCc4cn(Cc5cccc(N6C[C@H]7C[C@@H]6CN7/C=C/C(=O)c6ccccc6O)n5)nn4)c3C2=O)C1=O (some centres unmarked) [I-41] | > 1000 | –
3 | CC(c1ccc(CNCCOCCOCCOCCCc2ccc3c(c2)n(C)c(=O)n3C2CCC(=O)NC2=O)cc1)n1cc(-c2cc(-c3ccccc3O)nnc2N)cn1 (centres unmarked) [I-42, 3-(5-(1-(4-(1-(4-(3-amino-6-(2-hydroxyphenyl)pyridazin-4-yl)-1H-pyrazol-1-yl)ethyl)phenyl)-5,8,11-trioxa-2-azatetradecan-14-yl)-3-methyl-2-oxo-2,3-dihydro-1H-benzo[d]imidazol-1-yl)piperidine-2,6-dione] | > 1000 | –
4 | Nc1nnc(-c2ccccc2O)cc1N1C[C@H]2C[C@@H]1CN2c1cccc(Cn2cc(CCCCOc3cccc4c3C(=O)N(C3CCC(=O)NC3=O)C4=O)nn2)n1 (some centres unmarked) [I-43] | > 1000 | 70 to 90
5 | Cn1c(=O)n(C2CCC(=O)NC2=O)c2ccc(CCCCc3cn(Cc4cccc(N5C[C@H]6C[C@@H]5CN6/C=C/C(=O)c5ccccc5O)n4)nn3)cc21 (some centres unmarked) [I-44] | > 1000 | < 50
6 | Cn1c(=O)n(C2CCC(=O)NC2=O)c2ccc(CCCCCc3cn(Cc4cccc(N5C[C@H]6C[C@@H]5CN6/C=C/C(=O)c5ccccc5O)n4)nn3)cc21 (some centres unmarked) [I-45] | > 1000 | < 50
7 | Cn1c(=O)n(C2CCC(=O)NC2=O)c2ccc(CCCCCCc3cn(Cc4cccc(N5C[C@H]6C[C@@H]5CN6/C=C/C(=O)c5ccccc5O)n4)nn3)cc21 (stereo partly drawn) [I-46, 3-(5-(6-(1-((6-((1R,4R)-5-((E)-3-(2-hydroxyphenyl)-3-oxoprop-1-en-1-yl)-2,5-diazabicyclo[2.2.1]heptan-2-yl)pyridin-2-yl)methyl)-1H-1,2,3-triazol-4-yl)hexyl)-3-methyl-2-oxo-2,3-dihydro-1H-benzo[d]imidazol-1-yl)piperidine-2,6-dione] | > 1000 | 50 to 70
8 | Cn1c(=O)n(C2CCC(=O)NC2=O)c2ccc(CCCCCCCc3cn(Cc4cccc(N5C[C@H]6C[C@@H]5CN6/C=C/C(=O)c5ccccc5O)n4)nn3)cc21 (some centres unmarked) [I-47] | > 1000 | < 50
9 | Cn1c(=O)n(C2CCC(=O)NC2=O)c2ccc(CCCCCCCCc3cn(Cc4cccc(N5C[C@H]6C[C@@H]5CN6/C=C/C(=O)c5ccccc5O)n4)nn3)cc21 (some centres unmarked) [I-48] | > 1000 | < 50
10 | Cn1c(=O)n(C2CCC(=O)NC2=O)c2cccc(CCCCc3cn(Cc4cccc(N5C[C@H]6C[C@@H]5CN6/C=C/C(=O)c5ccccc5O)n4)nn3)c21 (some centres unmarked) [I-49] | 100 to 500 | 70 to 90
11 | Cn1c(=O)n(C2CCC(=O)NC2=O)c2cccc(CCCCCc3cn(Cc4cccc(N5C[C@H]6C[C@@H]5CN6/C=C/C(=O)c5ccccc5O)n4)nn3)c21 (some centres unmarked) [I-50] | > 1000 | < 50
12 | Cn1c(=O)n(C2CCC(=O)NC2=O)c2cccc(CCCCCCc3cn(Cc4cccc(N5C[C@H]6C[C@@H]5CN6/C=C/C(=O)c5ccccc5O)n4)nn3)c21 (some centres unmarked) [I-51] | > 1000 | < 50
13 | Cn1c(=O)n(C2CCC(=O)NC2=O)c2cccc(CCCCCCCc3cn(Cc4cccc(N5C[C@H]6C[C@@H]5CN6/C=C/C(=O)c5ccccc5O)n4)nn3)c21 (some centres unmarked) [I-52] | > 1000 | < 50
14 | Cn1c(=O)n(C2CCC(=O)NC2=O)c2cccc(CCCCCCCCc3cn(Cc4cccc(N5C[C@H]6C[C@@H]5CN6/C=C/C(=O)c5ccccc5O)n4)nn3)c21 (some centres unmarked) [I-53] | > 1000 | < 50
15 | O=C1CCC(n2c(=O)n(CCCCc3cn(Cc4cccc(N5C[C@H]6C[C@@H]5CN6/C=C/C(=O)c5ccccc5O)n4)nn3)c3ccccc32)C(=O)N1 (some centres unmarked) [I-54] | > 1000 | < 50
16 | O=C1CCC(n2c(=O)n(CCCCCc3cn(Cc4cccc(N5C[C@H]6C[C@@H]5CN6/C=C/C(=O)c5ccccc5O)n4)nn3)c3ccccc32)C(=O)N1 (stereo partly drawn) [I-55, 3-[3-[5-[1-[[6-[(1R,4R)-5-[(E)-3-(2-hydroxyphenyl)-3-oxo-prop-1-enyl]-2,5-diazabicyclo[2.2.1]heptan-2-yl]-2-pyridyl]methyl]triazol-4-yl]pentyl]-2-oxo-benzimidazol-1-yl]piperidine-2,6-dione] | > 1000 | < 50

Row | Structure (SMILES) | DC50 [nM] | Dmax [%]
17 | O=C1CCC(n2c(=O)n(CCCCCCc3cn(Cc4cccc(N5C[C@H]6C[C@@H]5CN6/C=C/C(=O)c5ccccc5O)n4)nn3)c3ccccc32)C(=O)N1 (some centres unmarked) [I-56] | > 1000 | < 50
18 | O=C1CCC(n2c(=O)n(CCCCCCCc3cn(Cc4cccc(N5C[C@H]6C[C@@H]5CN6/C=C/C(=O)c5ccccc5O)n4)nn3)c3ccccc32)C(=O)N1 (some centres unmarked) [I-57] | > 1000 | < 50
19 | O=C1CCC(n2c(=O)n(CCCCCCCCc3cn(Cc4cccc(N5C[C@H]6C[C@@H]5CN6/C=C/C(=O)c5ccccc5O)n4)nn3)c3ccccc32)C(=O)N1 (some centres unmarked) [I-58] | > 1000 | < 50
20 | Cn1c(=O)n(C2CCC(=O)NC2=O)c2ccc(C#CCCc3cn(Cc4cccc(N5C[C@H]6C[C@@H]5CN6/C=C/C(=O)c5ccccc5O)n4)nn3)cc21 (some centres unmarked) [I-59] | > 1000 | < 50
21 | Cn1c(=O)n(C2CCC(=O)NC2=O)c2ccc(C#CCCCc3cn(Cc4cccc(N5C[C@H]6C[C@@H]5CN6/C=C/C(=O)c5ccccc5O)n4)nn3)cc21 (some centres unmarked) [I-60] | > 1000 | < 50
22 | Cn1c(=O)n(C2CCC(=O)NC2=O)c2ccc(C#CCCCCc3cn(Cc4cccc(N5C[C@H]6C[C@@H]5CN6/C=C/C(=O)c5ccccc5O)n4)nn3)cc21 (some centres unmarked) [I-61] | > 1000 | < 50
23 | Cn1c(=O)n(C2CCC(=O)NC2=O)c2ccc(C#CCCCCCc3cn(Cc4cccc(N5C[C@H]6C[C@@H]5CN6/C=C/C(=O)c5ccccc5O)n4)nn3)cc21 (some centres unmarked) [I-62] | > 1000 | < 50
24 | Cn1c(=O)n(C2CCC(=O)NC2=O)c2ccc(C#CCCCCCCc3cn(Cc4cccc(N5C[C@H]6C[C@@H]5CN6/C=C/C(=O)c5ccccc5O)n4)nn3)cc21 (some centres unmarked) [I-63] | > 1000 | < 50
25 | Cn1c(=O)n(C2CCC(=O)NC2=O)c2cccc(C#CCCc3cn(Cc4cccc(N5C[C@H]6C[C@@H]5CN6/C=C/C(=O)c5ccccc5O)n4)nn3)c21 (some centres unmarked) [I-64] | > 1000 | 70 to 90
26 | Cn1c(=O)n(C2CCC(=O)NC2=O)c2cccc(C#CCCCc3cn(Cc4cccc(N5C[C@H]6C[C@@H]5CN6/C=C/C(=O)c5ccccc5O)n4)nn3)c21 (some centres unmarked) [I-65] | > 1000 | < 50
27 | Cn1c(=O)n(C2CCC(=O)NC2=O)c2cccc(C#CCCCCc3cn(Cc4cccc(N5C[C@H]6C[C@@H]5CN6/C=C/C(=O)c5ccccc5O)n4)nn3)c21 (some centres unmarked) [I-66] | > 1000 | < 50
28 | Cn1c(=O)n(C2CCC(=O)NC2=O)c2cccc(C#CCCCCCc3cn(Cc4cccc(N5C[C@H]6C[C@@H]5CN6/C=C/C(=O)c5ccccc5O)n4)nn3)c21 (some centres unmarked) [I-67] | > 1000 | < 50
29 | Cn1c(=O)n(C2CCC(=O)NC2=O)c2cccc(C#CCCCCCCc3cn(Cc4cccc(N5C[C@H]6C[C@@H]5CN6/C=C/C(=O)c5ccccc5O)n4)nn3)c21 (some centres unmarked) [I-68] | > 1000 | < 50
30 | O=C1CCC(N2C(=O)c3cccc(OCCc4cn(CCCc5cccc(N6C[C@H]7C[C@@H]6CN7/C=C/C(=O)c6ccccc6O)n5)nn4)c3C2=O)C(=O)N1 (some centres unmarked) [I-69] | > 1000 | < 50
31 | O=C1CCC(N2C(=O)c3cccc(OCCCc4cn(CCCc5cccc(N6C[C@H]7C[C@@H]6CN7/C=C/C(=O)c6ccccc6O)n5)nn4)c3C2=O)C(=O)N1 (some centres unmarked) [I-70] | > 1000 | 70 to 90
